The source of these data is article PMC5578959, “Selective LRRK2 kinase inhibition reduces phosphorylation of endogenous Rab10 and Rab12 in human peripheral mononuclear blood cells” (Scientific Reports, 2017).

One test has as its system T1, VRK2.
T1 construct: purchased ActivX Technologies (KiNativ)
Put plainly: KiNativ profiling in human PBMCs. The test is classed as binding. The settings on record: Lys2.

In another test the test system is T2, PKN2.
T2 construct: purchased ActivX Technologies (KiNativ)
Description: KiNativ profiling in human PBMCs. The test is classed as binding. The settings on record: Lys2.

The subject of a further test is T3, TGFbR2.
T3 construct: purchased ActivX Technologies (KiNativ)
Description: KiNativ profiling in human PBMCs. Format: binding. The note with it: Lys2.

The subject of another test is Rab10-pThr73. Put plainly: Acute inhibition, Western Blot, non-stimulated human PBMCs. The test is classed as cell-based. The procedure:
(§1) HEK293 cells were plated at a density of 1 × 10^6 cells/well in 6-well plates pre-coated for 1 hr at 37 °C with poly-L-lysin. Subsequent to the transient transfection HEK293 cells were harvested using 1 mL cold Phosphate Buffered Saline (PBS) buffer (Invitrogen, California, US) and subsequently centrifuged at 800 g for 2 minutes. Cell pellets were resuspended and solubilized in 100 µL lysis buffer (50 mM Tris hydrochloride, 1 mM magnesium chloride, 1% Triton, 0.1% sodium dodecyl sulfate (SDS), pH 8.0) on ice for 20 minutes and then centrifuged at 20,000 g for 30 minutes at 4 °C. The solubilized crude cell lysate was size mobility separated by SDS-polyacrylamide gel electrophoresis (SDS-PAGE). LRRK2 was separated on a 3–8% Tris-Acetate gel (NuPAGE® Tris-Acetate Mini Gels, Life Technologies, Paisley, UK) and Rab10 and Rab12 were separated using a NuPAGE® Novex 4–12% Bis-Tris Gel (Invitrogen, California, US). An amount of 10 µg total protein was loaded in each well. Proteins were transferred to immobilon-FL PVDF membranes (Millipore, Billerica, US). Membranes were incubated with primary antibodies overnight at 4 °C: mouse monoclonal [N241A/34] anti-LRRK2 antibody (1:2,000; NeuroMab, California, US), rabbit monoclonal [UDD2 10(12)] anti-pS935-LRRK2 antibody (1:1,000; RabMAb®, Abcam, Cambridge, UK), mouse anti-HA monoclonal antibody [clone HA-7] (1:10,000; Santa Cruz Biotechnology, Texas, US), rabbit anti-Rab10-pThr73 polyclonal [#5981] (1:2,000; H. Lundbeck A/S, DK) and rabbit anti-Rab12-Ser106 polyclonal antibody [#5919] (1:5,000; H. Lundbeck A/S, DK). Subsequently, the membranes were washed and incubated with secondary antibodies for 1 hour at room temperature: Anti-rabbit IgG F(c) (GOAT) antibody IRDye® 800CW Conjugated (1:10,000; Rockland Immunochemicals Inc., Gilbertsville, US) and anti-mouse Alexa Fluor® 680 Goat anti-mouse IgM (1:20,000; Life Technologies, Paisley, UK). The proteins were visually detected by infrared imaging using Odyssey CLx (LI-COR, Nebraska, US). Membranes were scanned and band intensities were quantified using the Image Studio version 3.1.4 (LI-COR, Nebraska).
(§2) PBMCs were isolated using the density gradient medium, Lymphoprep™ from Stemcell Technologies (Vancouver, Canada) following their standard protocol. Briefly, 4 ml blood was diluted with 4 ml PBS and applied at the SepMate™ tubes (Stemcell Technologies) and spun at 1200xg for 20 min at RT in the centrifuge without brakes. The PBMC layer was collected and spun at 600xg for 8 min and washed two times in PBS by spinning at 600xg between each wash. After the last wash, the cells were counted and the cellular concentration was adjusted to 50 × 10^6 cells/ml in PBS. Donor samples were treated with the LRRK2 inhibitor PFE-360 for one hour and the cells were hereafter lysed by adding 1/10 volume lysis buffer (5% Triton-X, 5% Digitonin, 10 mM EDTA) containing phosphatase and protease inhibitor cocktail (Roche Diagnostics, Mannheim, Germany). The lysates from human PBMCs were subjected to SDS-PAGE and Western Blotting procedures as described above.

The target of another test is T4, LRRK2-pSer935 (Homo sapiens, UniProt Q5S007).
T4 construct: human primary cells expressing endogenous levels of LRRK2; endogenous in cells; host or cells: human PBMCs from healthy donors
T4 sequence (Q5S007 whole entry): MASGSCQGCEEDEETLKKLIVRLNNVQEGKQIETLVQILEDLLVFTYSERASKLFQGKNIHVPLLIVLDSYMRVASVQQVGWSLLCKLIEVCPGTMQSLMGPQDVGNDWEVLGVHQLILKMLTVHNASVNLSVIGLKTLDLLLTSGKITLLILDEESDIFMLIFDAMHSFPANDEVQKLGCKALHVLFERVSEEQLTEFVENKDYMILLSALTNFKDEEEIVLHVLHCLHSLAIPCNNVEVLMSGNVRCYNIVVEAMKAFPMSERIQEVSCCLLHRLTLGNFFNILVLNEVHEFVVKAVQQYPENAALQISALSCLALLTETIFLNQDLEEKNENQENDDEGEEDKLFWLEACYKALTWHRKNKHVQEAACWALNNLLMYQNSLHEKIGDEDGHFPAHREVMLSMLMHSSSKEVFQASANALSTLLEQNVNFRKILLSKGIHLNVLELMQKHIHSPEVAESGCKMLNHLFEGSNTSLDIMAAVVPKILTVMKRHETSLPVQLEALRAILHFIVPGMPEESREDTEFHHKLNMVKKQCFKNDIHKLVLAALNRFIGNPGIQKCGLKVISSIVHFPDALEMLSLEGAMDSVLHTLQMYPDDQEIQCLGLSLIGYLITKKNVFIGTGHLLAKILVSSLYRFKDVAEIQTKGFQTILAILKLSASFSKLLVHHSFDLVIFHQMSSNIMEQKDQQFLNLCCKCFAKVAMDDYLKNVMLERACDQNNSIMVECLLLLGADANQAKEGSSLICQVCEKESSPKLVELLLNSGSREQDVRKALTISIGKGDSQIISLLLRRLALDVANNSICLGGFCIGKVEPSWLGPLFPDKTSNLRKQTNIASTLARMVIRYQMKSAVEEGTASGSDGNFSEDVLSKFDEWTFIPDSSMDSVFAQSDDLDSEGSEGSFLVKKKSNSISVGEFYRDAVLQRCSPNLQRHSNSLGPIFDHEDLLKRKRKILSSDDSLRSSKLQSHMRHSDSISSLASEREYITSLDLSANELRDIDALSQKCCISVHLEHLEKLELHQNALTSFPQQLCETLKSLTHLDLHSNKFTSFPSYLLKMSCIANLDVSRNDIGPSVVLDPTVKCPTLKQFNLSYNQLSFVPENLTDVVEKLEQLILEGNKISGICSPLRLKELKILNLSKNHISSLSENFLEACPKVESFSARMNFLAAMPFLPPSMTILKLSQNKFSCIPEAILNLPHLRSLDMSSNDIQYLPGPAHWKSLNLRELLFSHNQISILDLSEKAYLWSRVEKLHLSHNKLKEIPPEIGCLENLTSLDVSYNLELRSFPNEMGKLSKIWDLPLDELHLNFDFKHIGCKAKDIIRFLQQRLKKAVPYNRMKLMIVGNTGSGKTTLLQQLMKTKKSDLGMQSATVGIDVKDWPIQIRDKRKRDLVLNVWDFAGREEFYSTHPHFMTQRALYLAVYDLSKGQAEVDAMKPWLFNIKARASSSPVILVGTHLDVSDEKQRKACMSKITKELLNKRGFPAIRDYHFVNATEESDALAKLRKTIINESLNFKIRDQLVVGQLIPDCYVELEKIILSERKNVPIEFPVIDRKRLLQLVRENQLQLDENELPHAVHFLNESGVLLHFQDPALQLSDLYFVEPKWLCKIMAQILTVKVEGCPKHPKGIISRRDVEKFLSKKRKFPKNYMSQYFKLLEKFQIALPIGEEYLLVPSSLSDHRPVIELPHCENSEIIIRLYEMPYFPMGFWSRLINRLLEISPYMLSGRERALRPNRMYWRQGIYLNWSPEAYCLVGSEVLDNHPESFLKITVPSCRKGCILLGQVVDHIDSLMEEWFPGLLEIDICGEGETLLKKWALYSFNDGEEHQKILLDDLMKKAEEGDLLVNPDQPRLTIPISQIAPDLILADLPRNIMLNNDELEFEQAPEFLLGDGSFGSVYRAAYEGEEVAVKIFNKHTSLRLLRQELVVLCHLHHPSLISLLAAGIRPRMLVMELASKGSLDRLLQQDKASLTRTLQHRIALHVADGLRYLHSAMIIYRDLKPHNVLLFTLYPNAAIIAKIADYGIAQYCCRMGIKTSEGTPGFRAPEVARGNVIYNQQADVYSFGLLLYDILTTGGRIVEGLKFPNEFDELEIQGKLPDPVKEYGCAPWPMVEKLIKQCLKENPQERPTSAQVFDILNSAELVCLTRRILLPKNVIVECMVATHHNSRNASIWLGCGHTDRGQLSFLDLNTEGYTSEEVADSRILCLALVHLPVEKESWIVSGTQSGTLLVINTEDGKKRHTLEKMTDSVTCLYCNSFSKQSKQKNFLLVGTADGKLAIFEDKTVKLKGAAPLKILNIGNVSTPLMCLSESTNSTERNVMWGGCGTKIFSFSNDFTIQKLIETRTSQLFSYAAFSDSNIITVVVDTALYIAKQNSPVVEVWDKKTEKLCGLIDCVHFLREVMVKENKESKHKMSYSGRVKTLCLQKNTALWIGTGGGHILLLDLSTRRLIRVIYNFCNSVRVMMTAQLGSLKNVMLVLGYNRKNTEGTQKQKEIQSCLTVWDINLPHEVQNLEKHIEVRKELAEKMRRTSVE
The description is as above. The test is classed as cell-based. As for the experimental part:
as §1, §2

The test system of another test is T5, TEC.
T5 construct: purchased ActivX Technologies (KiNativ)
Put plainly: KiNativ profiling in human PBMCs. The note with it: Activation Loop. Format: binding.

Another test has as its system T6, EphA1.
T6 construct: purchased ActivX Technologies (KiNativ)
Put plainly: KiNativ profiling in human PBMCs. The test is classed as binding. The note with it: Activation Loop.

For a further test, the system named is PCTAIRE2, PCTAIRE3. Description: KiNativ profiling in human PBMCs. The note with it: Lys1. The test is classed as binding.
[1] abbreviates: 2 µM, 1hr, non-stimulated PBMCs, n = 6 donors.
[2] abbreviates: non-stimulated human PBMCs, 1 hour, n = 3.

Take `Cn1cc(-c2c[nH]c3ncnc(N4CCOCC4)c23)cc1C#N` [PFE-360]: the “% Inhibition” value in the test with VRK2 (0.1µM) was -2.9%; in the test on VRK2 (1µM), 8.4%; with PKN2 (0.1µM), -3%; with PKN2 (1µM), -20%; with TGFbR2 (0.1µM), -5.4%; in the test with TGFbR2 (1µM), -16.3%. Moreover, the “% Inhibition” value is listed as -3.8% with TEC (0.1µM); 9.2% in the test on TEC (1µM); -12.8% with EphA1 (0.1µM); -26.9% with EphA1 (1µM); -34% in the test with PCTAIRE2, PCTAIRE3 (0.1µM); 11.6% in the test with PCTAIRE2, PCTAIRE3 (1µM). Moreover, the “Rab10-pThr73 levels vs PBS-treated PBMC samples” value with Rab10-pThr73 (setting [1]) was “significantly lower”. The IC50 was determined as 12 nM in the test with Rab10-pThr73 (setting [2]) and 24 nM against LRRK2-pSer935 (setting [2]). The “pIC50 ± SEM, Rab10-pThr73” value in the test with Rab10-pThr73 (setting [2]) is listed as 7.9 ± 0.3 (n = 3). Besides, on LRRK2-pSer935 (2 µM, 1hr, non-stimulated PBMCs), the LRRK2 inhibition entry is “full LRRK2 inhibition”. The “LRRK2-pSer935 levels vs PBS-treated PBMC samples” value at LRRK2-pSer935 (setting [1]) was “significantly lower”. Moreover, the “pIC50 ± SEM, LRRK2-pSer935” value on LRRK2-pSer935 (setting [2]) was 7.6 ± 0.3 (n = 3).
